The values below come from ChEMBL document CHEMBL1141934, “Comparison of ligand-based and structure-based 3D-QSAR approaches: a case study on (aryl-)bridged 2-aminobenzonitriles inhibiting HIV-1 reverse transcriptase” (J Med Chem, 2005).

In general, IC50 refers to the concentration that gives 50% inhibition. Low readings indicate inhibition by little substance, high ones a need for much substance.

This experiment deals with Human immunodeficiency virus type 1 reverse transcriptase (Human immunodeficiency virus 1, UniProt Q72547). In words: Inhibitory concentration against Reverse transcriptase.

`N#Cc1ccccc1[S+]([O-])c1cccc(N)c1C#N` (configuration not stated): half-maximal inhibition (IC50) required 9.77 µM. Consider `N#Cc1c(N)cccc1S(=O)(=O)c1ccc2ccccc2c1`, for which the IC50 was 0.0295 µM.
